System: cultured cells of Taxus baccata LINN
Assay: Growth rate and taxane yield, 21-day shake culture of Taxus baccata cells with heavy metal compound, amine, antiethylene agent or Ethrel added
Format: cell-based
Method: (§1) One gram (fresh weight) of the callus was inoculated to an Erlenmeyer flask containing 20 ml of liquid Woody Plant Medium to which the above-mentioned component was added to give the same concentration and shake culture was carried out with a rotary shaker (amplification of 25 mm, 100 rpm) and the callus was subcultured in every 21 days to accelerate the growth rate thereof.
Then shake culture was carried out at 25° C. for 21 days.
(§2) After completing the culture, cultured cells of Taxus baccata LINN were harvested by filtration and lyophilized, then the dry weight was measured to obtain the growth rate thereof. Taxane-type diterpenes were extracted from the dried callus with methanol and the like, and they were determined by comparing with standard taxol, cephalomannine, and baccatin III using high performance liquid chromatography to measure the yields of the taxane-type diterpenes.
as §1
One gram (fresh weight) of the cultured cells thus obtained was inoculated to an Erlenmeyer flask containing 20 ml of liquid Woody Plant Medium to which the above-mentioned component had been added to give the same concentration, then spermidine was added to it as amine to give the final concentration of 10^−9M-1M. Then shake culture was carried out at 25° C. for 21 days.
as §2, with “cells” for “callus”, “diterpene.” for “diterpenes.”
as §1, with “component had been” for “component was”
One gram (fresh weight) of the cultured cells thus obtained was inoculated to an Erlenmeyer flask containing 20 ml of liquid Woody Plant Medium to which the above-mentioned component had been added to give the same concentration, and shake culture was carried out at 25° C. for 14 days.

[1] = 10^−3 M added at start, 21 days
[2] = 10^−3 M added on 14th day, 7 more days
[3] = 1 M added on 14th day, 7 more days
[4] = 10^−1 M added on 14th day, 7 more days
[5] = 10^−2 M added on 14th day, 7 more days
[6] = 10^−4 M added on 14th day, 7 more days
[7] = 10^−5 M added on 14th day, 7 more days
[8] = 10^−6 M added on 14th day, 7 more days
[9] = 10^−7 M added on 14th day, 7 more days
[10] = 10^−8 M added on 14th day, 7 more days
[11] = 10^−9 M added on 14th day, 7 more days
[12] = Ethrel 10^−3 M added at the start (0 day), no acetylsalicylic acid, oxygen 20%
[13] = Ethrel 10^−3 M added at the start (0 day), no acetylsalicylic acid, oxygen 20%, cell + medium

O=[N+]([O-])[O-].[Ag+] [silver nitrate] was tested, and the growth rate [1] was 2.8 times, the “total yield of taxane” value [1] was 23.21 mg/L and the “yield of baccatin III” value [1] was 3.01 mg/L. For the same molecule, the yield of cephalomannine [1] was 7.54 mg/L, the yield of taxol [1] was 12.66 mg/L and the growth rate [2] was 2.8 times. The “total yield of taxane” value [2] was 20.58 mg/L, the “yield of baccatin III” value [2] was 2.18 mg/L and the yield of cephalomannine [2] was 6.49 mg/L. It also gave a yield of taxol [2] of 11.91 mg/L.

C=C [ethylene] was tested, and the “production of the taxane-type diterpene by the tissues and the cells” value was “greatly inhibits”.

For CCCOC(=O)c1cc(O)c(O)c(O)c1 [propyl gallate], the growth rate [3] was 1.1 times, the “total yield of taxane” value [3] was 0.01 mg/L and the “yield of baccatin III” value [3] was 0.01 mg/L. The yield of cephalomannine [3] was 0 mg/L, the yield of taxol [3] was 0 mg/L and the growth rate [4] was 1.9 times. The “total yield of taxane” value [4] was 1.38 mg/L, the “yield of baccatin III” value [4] was 0.48 mg/L and the yield of cephalomannine [4] was 0.25 mg/L. For the same molecule, the yield of taxol [4] was 0.65 mg/L, the growth rate [5] was 2.9 times and the “total yield of taxane” value [5] was 7.03 mg/L. The “yield of baccatin III” value [5] was 0.69 mg/L, the yield of cephalomannine [5] was 2.01 mg/L and the yield of taxol [5] was 4.33 mg/L. The growth rate [2] was 3.2 times, the “total yield of taxane” value [2] was 12.10 mg/L and the “yield of baccatin III” value [2] was 0.84 mg/L. For the same molecule, the yield of cephalomannine [2] was 4.30 mg/L, the yield of taxol [2] was 6.96 mg/L and the growth rate [6] was 3.0 times. The “total yield of taxane” value [6] was 12.27 mg/L, the “yield of baccatin III” value [6] was 0.87 mg/L and the yield of cephalomannine [6] was 4.42 mg/L. For the same molecule, the yield of taxol [6] was 6.98 mg/L, the growth rate [7] was 3.0 times and the “total yield of taxane” value [7] was 16.13 mg/L. For the same molecule, the “yield of baccatin III” value [7] was 2.82 mg/L, the yield of cephalomannine [7] was 5.07 mg/L and the yield of taxol [7] was 8.24 mg/L. The growth rate [8] was 3.1 times, the “total yield of taxane” value [8] was 13.95 mg/L and the “yield of baccatin III” value [8] was 1.91 mg/L. The yield of cephalomannine [8] was 4.38 mg/L, the yield of taxol [8] was 7.66 mg/L and the growth rate [9] was 2.7 times. For the same molecule, the “total yield of taxane” value [9] was 2.79 mg/L, the “yield of baccatin III” value [9] was 0.55 mg/L and the yield of cephalomannine [9] was 0.72 mg/L. For the same molecule, the yield of taxol [9] was 1.52 mg/L, the growth rate [10] was 2.7 times and the “total yield of taxane” value [10] was 1.74 mg/L. The “yield of baccatin III” value [10] was 0.42 mg/L, the yield of cephalomannine [10] was 0.68 mg/L and the yield of taxol [10] was 0.74 mg/L. The growth rate [11] was 2.7 times, the “total yield of taxane” value [11] was 1.37 mg/L and the “yield of baccatin III” value [11] was 0.41 mg/L. It also gave a yield of cephalomannine [11] of 0.59 mg/L and a yield of taxol [11] of 0.37 mg/L.

For O=P(O)(O)CCCl [Reference Example 1], the growth rate [12] was 2.7 times, the “total yield of taxane” value [12] was 0.40 mg/L and the “yield of baccatin III” value [13] was 0.12 mg/L. It also gave a yield of cephalomannine [13] of 0.14 mg/L and a yield of taxol [13] of 0.14 mg/L.

For Cl.NOCC(=O)O [aminooxyacetic acid, aminoxyacetic acid hydrochloride], the growth rate [3] was 0.9 times, the “total yield of taxane” value [3] was 0 mg/L and the “yield of baccatin III” value [3] was 0 mg/L. The yield of cephalomannine [3] was 0 mg/L, the yield of taxol [3] was 0 mg/L and the growth rate [4] was 1.2 times. The “total yield of taxane” value [4] was 1.03 mg/L, the “yield of baccatin III” value [4] was 0.33 mg/L and the yield of cephalomannine [4] was 0.26 mg/L. The yield of taxol [4] was 0.44 mg/L, the growth rate [5] was 1.5 times and the “total yield of taxane” value [5] was 1.93 mg/L. The “yield of baccatin III” value [5] was 0.32 mg/L, the yield of cephalomannine [5] was 0.71 mg/L and the yield of taxol [5] was 0.90 mg/L. For the same molecule, the growth rate [2] was 1.5 times, the “total yield of taxane” value [2] was 3.43 mg/L and the “yield of baccatin III” value [2] was 1.11 mg/L. For the same molecule, the yield of cephalomannine [2] was 0.71 mg/L, the yield of taxol [2] was 1.61 mg/L and the growth rate [6] was 1.7 times. For the same molecule, the “total yield of taxane” value [6] was 5.80 mg/L, the “yield of baccatin III” value [6] was 1.92 mg/L and the yield of cephalomannine [6] was 1.22 mg/L. The yield of taxol [6] was 2.66 mg/L, the growth rate [7] was 1.7 times and the “total yield of taxane” value [7] was 3.81 mg/L. For the same molecule, the “yield of baccatin III” value [7] was 1.30 mg/L, the yield of cephalomannine [7] was 1.16 mg/L and the yield of taxol [7] was 1.35 mg/L. For the same molecule, the growth rate [8] was 1.5 times, the “total yield of taxane” value [8] was 3.00 mg/L and the “yield of baccatin III” value [8] was 1.08 mg/L. It also gave a yield of cephalomannine [8] of 0.73 mg/L, a yield of taxol [8] of 1.19 mg/L and a growth rate [9] of 1.7 times. The “total yield of taxane” value [9] was 2.33 mg/L, the “yield of baccatin III” value [9] was 0.66 mg/L and the yield of cephalomannine [9] was 0.65 mg/L. The yield of taxol [9] was 1.02 mg/L, the growth rate [10] was 1.8 times and the “total yield of taxane” value [10] was 2.00 mg/L. The “yield of baccatin III” value [10] was 0.61 mg/L, the yield of cephalomannine [10] was 0.62 mg/L and the yield of taxol [10] was 0.77 mg/L. For the same molecule, the growth rate [11] was 2.3 times, the “total yield of taxane” value [11] was 1.38 mg/L and the “yield of baccatin III” value [11] was 0.21 mg/L. For the same molecule, the yield of cephalomannine [11] was 0.58 mg/L and the yield of taxol [11] was 0.59 mg/L.
